{"source": "patent US20120264159A1", "about": "“SCREENING SYSTEM FOR MODULATORS OF HER2 MEDIATED TRANSCRIPTION AND HER2 MODULATORS IDENTIFED THEREBY” (BUCK INSTITUTE FOR AGE RESEARCH, priority 2001, published 2012)", "key": {"[1]": {"system": "ErbB2 promoter", "assay": "Transiently transfected (episomal) RO6pGL ErbB2 promoter-reporter in MCF-7 cells", "assay_type": "cell-based, human", "conditions": "transient transfection of RO6pGL into MCF-7 cells; 0.4 μM TSA, 24 hour", "procedure": "FIGS. 11A and 11B show trichostatin A (TSA) responsiveness and DNase I hypersensitivity comparisons between the genomically integrated vs. episomally introduced ErbB2 promoter-reporter construct, RO6pGL, in MCF-7 cells. FIG. 11A: Luciferase activity (relative luminometer units) of the MCF/RO6pGL-9 subline compared to parental MCF-7 cells transiently transfected with the same ErbB2 promoter-reporter plasmid (RO6pGL) and after 24 hour treatment with 0.4 μM TSA, normalized against their respective non-treatment (vehicle only) control conditions. FIG. 11B: DNase 1 hypersensitivity analysis (described in Methods) of nuclei from MCF/RO6pGL-9 vs. MCF-7 cells transiently transfected with RO6pGL, following similar culture treatments with TSA.\nIn an episomal context and following transient transfection of the RO6pGL construct into MCF-7 cells, TSA produced diametrically opposite (>10-fold stimulatory) effects on this same ErbB2 promoter-driven reporter (FIG. 11). Southern blot comparisons of DNase I treated MCF/R06pGL-9 cell nuclei and those from transfected MCF-7 cells bearing the episomally introduced R06pGL plasmid confirmed the lack of a discrete DNase-I hypersensitivity site in the episomal R06pGL and the presence of such a site in the genomically integrated R06pGL, similar in location and intensity to that found within the endogenous ErbB2 promoter (FIG. 11). […]"}, "[2]": {"system": "ErbB2 transcript", "assay": "Northern blot of ErbB2 transcript levels in ErbB2 overexpressing breast cancer cells", "assay_type": "cell-based, human", "procedure": "The conserved and singular DNase I hypersensitivity sites found in the proximal ErbB2 and ESX promoters (12,15) were assayed as before (12). Briefly, following culture treatment of cells, nuclei isolated by mild detergent lysis in a buffer containing 10 mM Hepes pH 7.9, 1.5 mM MgCl2, 10 mM KCl, 0.4% NP-40, 10% glycerol and 1 mM DTT. Partial DNase I digestions were carried out by varying DNase I treatment times (0-15 minutes at 37( ) at a fixed DNase I concentrations (0.5-1.0 units per 10^6 nuclei). After purifying and restricting the DNA, it was electrophoresed through 0.7% agarose gels and blotted onto nylon membranes, UV-crosslinked and hybridized with randomly ^32P-labelled ErbB2 and ESX promoter probes, as similarly performed for routine Southern blotting. For Northern blotting, total (treated vs. control) cell RNA (10 μg/sample lane) was isolated using TRIzol (Invitrogen) according to manufacturer's specifications, electrophoresed into 1% agarose-formaldehyde gels and transferred onto membranes that were then hybridized with ^32P-labelled ErbB2 and ESX cDNA probes. For transcriptional run-off assays cell nuclei were first isolated from treated and control cells as described for the DNase I studies. Elongatation of initiated nascent RNA chains was performed at 37 (C for 30 minutes using ˜5×10^6 nuclei per reaction in a buffer containing 10 mM Tris pH7.5, 2.5 mM MgCl2, 150 mM KCl, 1 mM DTT, 10% glycerol, 0.5 mM ATP, GTP and CTP, and 100 μCi of [α-^32P]UTP (800 Ci/mmol). Nuclear RNA was purified by the addition of 100 units of RNase-free DNase I (Roche) per reaction for 2 minutes followed by TRIzol processing. Radiolabelled RNA was hybridized (˜4×10^6 cpm) at 68 (C in ExpressHyb (Clontech) for 24 hours to nylon filter membranes previously slotted with 0.5 μg per slot of unlabelled ErbB2 cDNA fragments (from either the transmembrane or C-terminal domains), ESX cDNA fragments, and empty plasmid control, as we have previously described (16). Filters were washed at 64 (C in 0.2 SSC and 0.5% SDS. For Western blotting, whole-cell extracts from control vs. treated cells were boiled in sample loading buffer (1% SDS, 20% glycerol, 100 mM DTT, 50 mM Tris, pH 6.8), gel lanes loaded for constant total protein (15 μg), electrophoresed into 9% sodium dodecyl sulfacte polyacrylamide (SDS-PAGE) gels, transferred onto membranes (Immobilon-P, Millipore), and the protein-bound membranes hybridized with a primary antibody followed by a horseradish peroxidase-conjugated secondary antibody (Sigma), and specific protein bands visualized by chemiluminescent substrate (Pierce), as previously described (10)."}, "[3]": {"system": "ESX mRNA synthesis", "assay": "Nuclear run-off assay of ESX mRNA synthesis in SKBR3 cells", "assay_type": "cell-based, human", "conditions": "5 hours, 0.4 μM TSA", "procedure": "The conserved and singular DNase I hypersensitivity sites found in the proximal ErbB2 and ESX promoters (12,15) were assayed as before (12). Briefly, following culture treatment of cells, nuclei isolated by mild detergent lysis in a buffer containing 10 mM Hepes pH 7.9, 1.5 mM MgCl2, 10 mM KCl, 0.4% NP-40, 10% glycerol and 1 mM DTT. […]\nNuclear run-off experiments were performed on ErbB2 overexpressing breast cancer cells to confirm the conclusion drawn from TSA induced downregulation of luciferase expression in MCF/R06pGL-9 cells that HDAC inhibitors can suppress ErbB2 promoter activity and presumably also repress ErbB2 transcription. […] Slot blot hybridization stringency was adjusted so that no signal could be detected from those control slots containing the empty plasmid."}, "[4]": {"system": "ErbB2 protein", "assay": "Western blot of 185 kDa ErbB2 protein levels in breast cancer cell lines", "assay_type": "cell-based, human", "procedure": "The conserved and singular DNase I hypersensitivity sites found in the proximal ErbB2 and ESX promoters (12,15) were assayed as before (12). Briefly, following culture treatment of cells, nuclei isolated by mild detergent lysis in a buffer containing 10 mM Hepes pH 7.9, 1.5 mM MgCl2, 10 mM KCl, 0.4% NP-40, 10% glycerol and 1 mM DTT. Partial DNase I digestions were carried out by varying DNase I treatment times (0-15 minutes at 37( ) at a fixed DNase I concentrations (0.5-1.0 units per 10^6 nuclei). After purifying and restricting the DNA, it was electrophoresed through 0.7% agarose gels and blotted onto nylon membranes, UV-crosslinked and hybridized with randomly ^32P-labelled ErbB2 and ESX promoter probes, as similarly performed for routine Southern blotting. For Northern blotting, total (treated vs. control) cell RNA (10 μg/sample lane) was isolated using TRIzol (Invitrogen) according to manufacturer's specifications, electrophoresed into 1% agarose-formaldehyde gels and transferred onto membranes that were then hybridized with ^32P-labelled ErbB2 and ESX cDNA probes. For transcriptional run-off assays cell nuclei were first isolated from treated and control cells as described for the DNase I studies. […]"}, "[5]": {"system": "carcinogen-induced mammary cancer", "conditions": "up to 5 mg/kg, cited from earlier work"}}}
{"smiles": "CC(/C=C/C(=O)NO)=C\\[C@@H](C)C(=O)c1ccc(N(C)C)cc1", "note": "[TSA, trichostatin A]", "values": [{"measurement": "effect on episomal ErbB2 promoter-driven reporter (stimulation)", "setting": "[1]", "value": "> 10", "unit": "fold"}, {"measurement": "ErbB2 transcript levels relative to control", "setting": "[2]; 8 hour TSA treatment, Northern assays (data not shown)", "value": "< 20 % of control"}, {"measurement": "ErbB2 transcript levels", "setting": "[2]; MDA-453 and BT-474 cells, similar TSA treatment (data not shown)", "value": "Virtually complete elimination of ErbB2 transcript levels"}, {"measurement": "ErbB2 mRNA level / decay", "setting": "[2]; SKBR3 cells, 5 hours treatment, TSA 0.05 or 0.40 μM, Act D 10 μg/ml", "value": "greatly enhanced the rate of ErbB2 mRNA decay"}, {"measurement": "ErbB2 transcript levels", "setting": "[2]; SKBR3 cells, 24 hours, 0.4 μM TSA", "value": "near total disappearance of ErbB2 transcripts"}, {"measurement": "ESX mRNA synthesis", "setting": "[3]", "value": "preserves ESX mRNA synthesis"}, {"measurement": "ectopic 185 kDa ErbB2 protein level", "setting": "[4]; MCF/HER2-18 cells (CMV promoter), same TSA treatment conditions", "value": "further stimulated"}, {"measurement": "endogenous 185 kDa ErbB2 protein levels (normalized to α-tubulin)", "setting": "[4]; SKBR3, MDA-453 and BT-474 cells, 24 hour, 0.4 μM TSA", "value": "marked decline"}, {"measurement": "ill effects", "setting": "[5]; adult or embryonic mice", "value": "no ill effects"}, {"measurement": "antitumor activity", "setting": "[5]; ip, sc, carcinogen-induced mammary cancer", "value": "potent antitumor activity"}]}
